Measured values reported in ChEMBL document CHEMBL3997793, “Discovery of peptidic miR-21 processing inhibitor by mirror image phage display: A novel method to generate RNA binding D-peptides” (Bioorg Med Chem Lett, 2017).

Assays:
[1] = Binding affinity to synthetic 3'-biotin-labelled mirrored pre-miR-21 RNA by ELISA
[2] = Binding affinity to synthetic 3'-biotin-labelled pre-miR-21 RNA by ELISA
[3] = Binding affinity to synthetic 3'-biotin-labelled pre-miR-21 RNA assessed as inhibition of human recombinant Dicer-mediated pre-miR-21 processing by measuring reduction in mature miR-21 formation pretreated for 30 mins followed by dicer addition after 2 hrs by SYBR staining based PAGE analysis

Structure (SMILES) | EC50 [1] [nM] | EC50 [2] [nM] | IC50 [3] [nM]
CC(C)[C@H](NC(=O)[C@H](C)NC(=O)[C@H](CCCNC(=N)N)NC(=O)[C@@H]1CSSC[C@H](NC(=O)[C@H](CCCNC(=N)N)NC(=O)CNC(=O)[C@@H]2CCCN2C(=O)CCCC[C@@H]2SC[C@@H]3NC(=O)N[C@@H]32)C(=O)N[C@@H](CCCCN)C(=O)N2CCC[C@H]2C(=O)N[C@@H](CCCCN)C(=O)N[C@@H](CCCNC(=N)N)C(=O)N[C@@H](CCCNC(=N)N)C(=O)N[C@@H](CCCNC(=N)N)C(=O)N[C@@H](CCCNC(=N)N)C(=O)N[C@@H](C)C(=O)N[C@@H]([C@@H](C)O)C(=O)N1)C(=O)O | 150 | 7400 | 
CC(C)[C@@H](NC(=O)[C@@H](C)NC(=O)[C@@H](CCCNC(=N)N)NC(=O)[C@H]1CSSC[C@@H](NC(=O)[C@@H](CCCNC(=N)N)NC(=O)CNC(=O)[C@H]2CCCN2C(=O)CCCC[C@@H]2SC[C@@H]3NC(=O)N[C@@H]32)C(=O)N[C@H](CCCCN)C(=O)N2CCC[C@@H]2C(=O)N[C@H](CCCCN)C(=O)N[C@H](CCCNC(=N)N)C(=O)N[C@H](CCCNC(=N)N)C(=O)N[C@H](CCCNC(=N)N)C(=O)N[C@H](CCCNC(=N)N)C(=O)N[C@H](C)C(=O)N[C@H]([C@H](C)O)C(=O)N1)C(=O)O | 1600 | 440 | 540
